Results from US12391768B2, “Antibodies to ticagrelor and methods of use” (MEDIMMUNE LIMITED, priority 2014, dated 2025).

B1: TICA0212: combination of TICA0162 and TICA0152; VH SEQ ID NO:72, VL SEQ ID NO:77 (antibody, listed as Homo sapiens, V domains shown)
VH: QVQLQESGAEVKKPGSSVRVSCKASGGTFDSYSIHWVRQAPGQGLEWMGGIIPAFGTLSSAQDFQARVTISADKSTSTAYMELSGLRSEDTAVYYCARGSFDYYFWSASHPPNDALAIWGQGTLVTVSS
VL: QSVVTQPPSVSAAPGQKVTISCSGSNSDIGNNYVSWYQQLPGTAPKLLIYDNNKRPSGIPDRFSGSKSGTSATLAITGLQAGDEADYYCGTWLYDRAVGLFGGGTKVTVL

Key:
[1] = Total plasma concentration of ticagrelor and TAM (LC-MS/MS); type: in vivo, mice
Experimental: Blood samples were collected in tubes with EDTA anticoagulant and centrifuged for 5 min at 10000× g at room temperature to prepare plasma. The plasma concentration of ticagrelor and TAM were determined by protein precipitation and liquid chromatography with tandem mass spectrometry (LC-MS/MS) as described in published method [Sillén H., et al., J Chromatogr B Analyt Technol Biomed Life Sci 2010; 878: 2299-306] with the following deviations. Plasma, 50 μL, was protein precipitated with 180 μl internal standard (D7-ZD6140) in acetonitrile. The liquid chromatographic system and mass spectrometer was an Acquity Ultra Performance LC coupled to a Xevo TQ-S mass spectrometer from Waters. Chromatographic separation was achieved on an Aquity UPLC® BEH C18 column (2.1×50 mm, particle size 1.7 um). Negative electrospray ionization was utilized. Eluent A was water with 10 mmol/L ammonium acetate, pH5 and eluent B was acetonitrile with 10 mmol/L ammonium acetate. Injection volume was 1 to 5 μL and the analytical gradient started with 4% B, increasing to 95% in 1.5 min, remaining until 2.3 min, before returning to initial conditions within 2.4 min followed by 0.3 min re-equilibration. No quality control samples were used in the analysis. The lower limit of quantification (LLOQ) was 0.005 μmol/L and the calibration range was 0.005 to 15.0 μM.
The total plasma concentrations of ticagrelor and TAM in presence of TICA0212/MEDI2452 were determined by adding 1% formic acid (FA: Sample, 1:5) followed by protein precipitation and LC-MS/MS as described above. Formic acid was added to the sample to facilitate dissociation of ticagrelor and TICA0212/MEDI2452.

[2] = design: species or system mice; conditions: mouse, in vivo
Experimental: The method was optimized based on a previous published method [Sillen H., et al., J Chromatogr B Analyt Technol Biomed Life Sci. 2011 Aug. 1; 879(23): 2315-22]. Dialysis membranes (Spectrum Laboratories, Inc) which allows molecules with a mass below 6 to 8 kDa to pass through, was soaked in ELGA water for 10 to 15 min and placed between the dialysis plate halves (in house made). Plasma, 130 μL, was added to one side of the dialysis plate and 130 μL phosphate buffer, pH 7.0, was added to the opposite side. The wells on both sides were sealed with lids and aluminum plates were put on top on each side of the plate to avoid leakage. The plate was then placed vertical on an orbital shaker at 100 rpm/min at 37° C. for 24 h. The dialysis was terminated by transferring of 50 μL retentate from plasma side and 75 μL dialysate from buffer side to a protein LoBind PCR clean 96 deep-well plate containing 150 μL respective 75 μL internal standard (D7-ZD6140) in acetonitrile. The plate was mixed for 1 min and then centrifuged for 20 min, 1500× g at 4° C. After centrifugation 50 μL supernatant from the precipitated retentate was transferred and diluted with 50 μL ELGA H2O before LC-MS/MS (Acquity Ultra Performance LC coupled to a Xevo TQ-S mass spectrometer, Waters) analysis. No quality control samples were used in the analysis. […]

[3] = target: TICA0159 IgG binding to biotinylated ticagrelor; assay: Second generation HTRF epitope competition assay
Experimental: Purified parent TICA0072 (scFv or Fab) was used as a benchmark in all experiments such that improvements in IC50 measured with optimized variants (scFv or Fab) could be expressed as fold improvements over parent TICA0072. Total Binding Control Wells contained all assay components except that 5 ul assay buffer was added in place of the purified scFv or Fab sample. Negative Binding control wells contained all of the components of the Total Binding control wells except that 5 ul of assay buffer was added in place of the TICA0072 IgG.
In both single point HTS and multipoint IC50 profiling versions of the assay. plates were incubated for 3 hrs at RT before being read on an Envision plate reader using a standard HTRF read protocol in which samples are excited at 337 nm and time resolved fluorescence emission is measured at both 620 nm and 665 nM.
Raw 665 nm and 620 nm counts were used to calculate Delta F (%) and % Specific Binding according to the equations described earlier in Assays 1 and 4, respectively. For multipoint secondary profiling experiments IC50 values were determined using Graphpad Prism software using sigmoidal dose response (variable slope) curve fitting (4 parameter logistic equation).
This assay was used only in multipoint IC50 profiling format (as opposed to HTS format) and was performed essentially identically to the method given in Assay 5 (above) for multipoint IC50 profiling of purified Fab variants in the parent TICA0072 IgG based epitope competition assay. The only difference being that TICA0159 IgG was used in place of TICA0072 IgG at the appropriate point in the assay set up but at the same 16nM final assay concentration. In all other respects this assay was performed exactly as described above in the multipoint secondary profiling version for purified Fab.

Molecule | ticagrelor plasma exposure, average ([1]; Example 11, after termination of the ticagrelor infusion, i.v., mice) | mean total plasma concentration ([1]; Example 12, end of ticagrelor infusion 300 μg/kg/min 20 min, mice) | mean total plasma concentration at time of tail cut ([1]; Example 12, vehicle treated mice, t=30 minutes) | mean free plasma concentration of ticagrelor [2] | IC50 ([3]; Fab, 16 nM TICA0159 IgG, 1 nM biotinylated ticagrelor) | Fold Improved ([3]; IC50 relative to parent TICA0072 Fab) | improvement in IC50 relative to the parent TICA0072 Fab ([3]; second generation epitope competition assay)
CCCSc1nc(N[C@@H]2C[C@H]2c2ccc(F)c(F)c2)c2nnn([C@@H]3C[C@H](OCCO)[C@@H](O)[C@H]3O)c2n1 [Ticagrelor, (1S,2S,3R,5S)-3-[7-{[(1R,2S)-2-(3,4-difluorophenyl)cyclopropyl]amino}-5-(propylthio)-3H-[1,2,3]triazolo[4,5-d]pyrimidin-3-yl]-5-(2-hydroxyethoxy)cyclopentane-1,2-diol] | 1.4 µM | 7.6 µM | 2.4 µM | 4.7 nM | – | – | –
B1 | – | – | – | – | 12 nM | 142.8 | approximately 2 log
